{"source": "ChEMBL document CHEMBL1135334", "about": "“Design, synthesis and biological evaluation of cyclic angiotensin II analogues with 3,5 side-chain bridges. Role of C-terminal aromatic residue and ring cluster for activity and implications in the drug design of AT1 non-peptide antagonists” (2002)", "format_in_all_cases": "functional", "key": {"[1]": {"species_on_record": "Oryctolagus cuniculus", "test": "Compound was tested for dose-related reduction of the mean blood pressure on boluses of different dose of 0.05 mg via ear vein; value ranges from -20 to -40"}, "[2]": {"species_on_record": "Oryctolagus cuniculus", "test": "Compound was tested for dose-related reduction of the mean blood pressure on boluses of different dose of 0.1 mg via ear vein"}, "[3]": {"species_on_record": "Oryctolagus cuniculus", "test": "Compound was tested for dose-related reduction of the mean blood pressure on boluses of different dose of 0.2 mg via ear vein; value ranges from -40 to -60"}, "[4]": {"species_on_record": "Oryctolagus cuniculus", "test": "Compound was tested for dose-related reduction of the mean blood pressure on boluses of different dose of 150 mg via ear vein"}, "[5]": {"species_on_record": "Oryctolagus cuniculus", "test": "Compound was tested for dose-related reduction of the mean blood pressure on boluses of different dose of 300 mg via ear vein"}, "[6]": {"species_on_record": "Oryctolagus cuniculus", "test": "Compound was tested for dose-related reduction of the mean blood pressure on boluses of different dose of 75 mg via ear vein"}, "[7]": {"species_on_record": "Oryctolagus cuniculus", "test": "Compound was tested for dose-related reduction of the mean blood pressure on boluses of different dose of 2 mg via ear vein; value ranges from 0 to -20"}, "[8]": {"species_on_record": "Oryctolagus cuniculus", "test": "Compound was tested for dose-related reduction of the mean blood pressure on boluses of different dose of 1 mg via ear vein; value ranges from 0 to -20"}, "[9]": {"tested_on": "Oryctolagus cuniculus", "test": "Compound was tested for dose-dependent hypertensive response in infused anesthetized rabbits at 30 ug/min"}, "[10]": {"tested_on": "Oryctolagus cuniculus", "test": "Compound was tested for dose-dependent hypertensive response in infused anesthetized rabbits at 20 ug/min"}, "[11]": {"tested_on": "Oryctolagus cuniculus", "test": "Compound was tested for dose-dependent hypertensive response in infused anesthetized rabbits at 10 ug/min"}, "[12]": {"tested_on": "Oryctolagus cuniculus", "test": "Compound was tested for dose-dependent hypertensive response in infused anesthetized rabbits at 3 ug/min"}, "[13]": {"tested_on": "Oryctolagus cuniculus", "test": "Compound was tested for dose-dependent hypertensive response in infused anesthetized rabbits at 2 ug/min"}, "[14]": {"tested_on": "Oryctolagus cuniculus", "test": "Compound was tested for dose-dependent hypertensive response in infused anesthetized rabbits at 1 ug/min"}}, "note": "Bridge positions count the residues as written; N and C are the ends. Square brackets hold non-standard residues; d marks the D form. Peptide text beside a SMILES is read from it. Sar = CNCC(=O)O"}
{"smiles": "CCCCc1nc(Cl)c(CO)n1Cc1ccc(-c2ccccc2-c2nnn[nH]2)cc1", "note": "[LOSARTAN]", "values": [{"measurement": "Delta mean blood pressure", "setting": "[1]", "result": -20}, {"measurement": "Delta mean blood pressure", "setting": "[2]", "result": -40}, {"measurement": "Delta mean blood pressure", "setting": "[3]", "result": -40}]}
{"smiles": "CC[C@H](C)[C@H](NC(=O)[C@@H]1CCCN1C(=O)[C@H](Cc1c[nH]cn1)NC(=O)[C@@H]1CCCCNC(=O)CC[C@H](NC(=O)[C@H](CCCN=C(N)N)NC(=O)CNC)C(=O)N[C@@H](Cc2ccc(O)cc2)C(=O)N1)C(=O)O", "note": "(H-[Sar]REYKHPI-OH; lactam 3-5)", "values": [{"measurement": "Delta mean blood pressure", "setting": "[4]", "result": 0}, {"measurement": "Delta mean blood pressure", "setting": "[5]", "result": -20}, {"measurement": "Delta mean blood pressure", "setting": "[6]", "result": 0}]}
{"smiles": "OCc1nc2ccccc2n1Cc1ccc(-c2ccccc2C2=NC(Cc3ccccc3)N=N2)cc1", "note": "(centres undefined)", "values": [{"measurement": "Delta mean blood pressure", "setting": "[7]", "result": 0}, {"measurement": "Delta mean blood pressure", "setting": "[8]", "result": 0}]}
{"smiles": "CNCC(=O)N[C@@H](CCCN=C(N)N)C(=O)N[C@H]1CCC(=O)NCCCC[C@@H](C(=O)N[C@@H](Cc2c[nH]cn2)C(=O)N2CCC[C@H]2C(=O)N[C@@H](Cc2ccccc2)C(=O)O)NC(=O)[C@H](Cc2ccc(O)cc2)NC1=O", "note": "(H-[Sar]REYKHPF-OH; lactam 3-5)", "values": [{"measurement": "Response", "setting": "[9]", "result": 60, "unit": "%"}, {"measurement": "Response", "setting": "[10]", "result": 40, "unit": "%"}, {"measurement": "Response", "setting": "[11]", "result": 0, "unit": "%"}]}
{"smiles": "CC[C@H](C)[C@H](NC(=O)[C@H](Cc1ccc(O)cc1)NC(=O)[C@@H](NC(=O)[C@H](CCCNC(=N)N)NC(=O)[C@@H](N)CC(=O)O)C(C)C)C(=O)N[C@@H](Cc1cnc[nH]1)C(=O)N1CCC[C@H]1C(=O)N[C@@H](Cc1ccccc1)C(=O)O", "note": "[ANGIOTENSIN II]", "values": [{"measurement": "Response", "setting": "[12]", "result": 40, "unit": "%"}, {"measurement": "Response", "setting": "[13]", "result": 20, "unit": "%"}, {"measurement": "Response", "setting": "[14]", "result": 20, "unit": "%"}]}
